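Five compound concentrations were applied to cells in 96-well plates for 48 hours; endpoints were derived by simple linear interpolation of the resulting dose-response curve. TGI: concentration producing complete growth inhibition.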
Assays:
Experiment in all cases: NCI anticancer screen, dose series, 48 h
[1] = system: M14 melanoma
[2] = system: U251 CNS
[3] = system: KM20L2 colon
[4] = system: HCT-15 colon
[5] = system: UO-31 renal
[6] = system: A498 renal
[7] = system: MDA-N
[8] = system: DU-145 prostate
[9] = system: MALME-3M melanoma
[10] = system: SNB-78 CNS
[11] = system: TK-10 renal
[12] = system: UACC-62 melanoma
[13] = system: LOX IMVI melanoma
[14] = system: IGROV1 ovarian
[15] = system: MCF7 breast
[16] = system: OVCAR-5 ovarian
[17] = system: HCC-2998 colon
[18] = system: MDA-MB-231 breast
[19] = system: SNB-19 CNS
[20] = system: SK-MEL-28 melanoma
[21] = system: RXF-631 renal
[22] = system: HCT-116 colon
[23] = system: RXF 393 renal
[24] = system: LXFL 529 NSCLC
[25] = system: MDA-MB-435
[26] = system: SNB-75 CNS
[27] = system: SW-620 colon
[28] = system: OVCAR-4 ovarian
[29] = system: EKVX NSCLC
[30] = system: HOP-92 NSCLC
[31] = system: HL-60(TB) leukemia
[32] = system: NCI-H226 lung
[33] = system: HOP-62 NSCLC
[34] = system: NCI-H460 lung
[35] = system: SN12C renal
[36] = system: NCI-H23 lung
[37] = system: SK-MEL-2 melanoma
[38] = system: M19-MEL melanoma
[39] = system: UACC-257 melanoma
[40] = system: SF-295 CNS
[41] = system: ACHN renal
[42] = system: T-47D breast
[43] = system: A549 NSCLC
[44] = system: CAKI-1 renal
[45] = system: OVCAR-3 ovarian
[46] = system: SF-539 CNS
[47] = system: COLO 205 colon
[48] = system: 786-0 renal
[49] = system: OVCAR-8 ovarian
[50] = system: HT29 colon
[51] = system: SK-OV-3 ovarian
[52] = system: DMS 273 small cell lung
[53] = system: XF 498 CNS
[54] = system: PC-3 prostate
[55] = system: KM12 colon
[56] = system: SF-268 CNS
[57] = system: SK-MEL-5 melanoma
[58] = system: MOLT-4 leukemia
[59] = system: NCI-H522 lung
[60] = system: HOP-18 NSCLC
[61] = system: K-562 leukemia
[62] = system: SR leukemia
[63] = system: DMS 114 small cell lung
[64] = system: CCRF-CEM leukemia
[65] = system: DLD-1 colon
[66] = system: RPMI-8226 leukemia

Q: Which results are given for `COc1ccc(/C=C2/CSC/C(=C/c3ccc(OC)c(OC)c3)C2=O)cc1OC`?
A: TGI [1]: 10.5 µM; TGI [2]: 2.72 µM; TGI [3]: 6.53 µM; TGI [4]: 3.46 µM; TGI [5]: 10.6 µM; TGI [6]: 15.3 µM; TGI [7]: 8.89 µM; TGI [8]: 9.07 µM; TGI [9]: 12.2 µM; TGI [10]: > 100 µM; TGI [11]: 29.5 µM; TGI [12]: 3.32 µM; TGI [13]: 2.62 µM; TGI [14]: 5.99 µM; TGI [15]: > 100 µM; TGI [16]: 12.7 µM; TGI [17]: 6.28 µM; TGI [18]: 8.18 µM; TGI [19]: 16.2 µM; TGI [20]: 9.76 µM; TGI [21]: 6.41 µM; TGI [22]: 2.28 µM; TGI [23]: 8.62 µM; TGI [24]: 10.8 µM; TGI [25]: > 100 µM; TGI [26]: > 100 µM; TGI [27]: 3.63 µM; TGI [28]: 5.49 µM; TGI [29]: 42.8 µM; TGI [30]: 43.7 µM; TGI [31]: > 100 µM; TGI [32]: 7.15 µM; TGI [33]: 8.72 µM; TGI [34]: 7.09 µM; TGI [35]: 4.13 µM; TGI [36]: 6.13 µM; TGI [37]: 7.61 µM; TGI [38]: 6.63 µM; TGI [39]: 16.9 µM; TGI [40]: 16.3 µM; TGI [41]: 5.58 µM; TGI [42]: 4.94 µM; TGI [43]: 8.39 µM; TGI [44]: 12.8 µM; TGI [45]: 5.15 µM; TGI [46]: 10.6 µM; TGI [47]: 6.28 µM; TGI [48]: 3.56 µM; TGI [49]: 2.19 µM; TGI [50]: 2.7 µM; TGI [51]: 42.6 µM; TGI [52]: 3.09 µM; TGI [53]: 25.8 µM; TGI [54]: 11.7 µM; TGI [55]: 3.26 µM; TGI [56]: 18.4 µM; TGI [57]: 7.01 µM; TGI [58]: > 20.9 µM; TGI [59]: 5.83 µM; TGI [60]: 17.3 µM

Q: What does the source list for `CCCCCC/C(CC(=O)CCC(=O)NCCc1ccccc1)=N\Nc1ccc([N+](=O)[O-])cc1[N+](=O)[O-]`?
A: TGI [1]: > 100 µM; TGI [2]: > 100 µM; TGI [3]: > 100 µM; TGI [4]: > 100 µM; TGI [5]: > 100 µM; TGI [6]: > 100 µM; TGI [61]: > 100 µM; TGI [9]: > 100 µM; TGI [10]: > 100 µM; TGI [11]: > 100 µM; TGI [12]: > 100 µM; TGI [13]: > 100 µM; TGI [14]: > 100 µM; TGI [16]: > 100 µM; TGI [17]: > 100 µM; TGI [19]: > 100 µM; TGI [20]: > 100 µM; TGI [21]: > 100 µM; TGI [22]: > 100 µM; TGI [23]: > 100 µM; TGI [24]: > 100 µM; TGI [62]: 67.7 µM; TGI [27]: > 100 µM; TGI [63]: 56.4 µM; TGI [29]: > 100 µM; TGI [30]: > 100 µM; TGI [31]: 70.5 µM; TGI [32]: > 100 µM; TGI [33]: > 100 µM; TGI [34]: > 100 µM; TGI [35]: > 100 µM; TGI [36]: > 100 µM; TGI [37]: > 100 µM; TGI [38]: > 100 µM; TGI [39]: > 100 µM; TGI [40]: > 100 µM; TGI [41]: > 100 µM; TGI [64]: 60.6 µM; TGI [43]: > 100 µM; TGI [44]: > 100 µM; TGI [45]: > 100 µM; TGI [46]: > 100 µM; TGI [47]: > 100 µM; TGI [65]: > 100 µM; TGI [48]: > 100 µM; TGI [49]: > 100 µM; TGI [50]: > 100 µM; TGI [51]: > 100 µM; TGI [66]: 81.7 µM; TGI [52]: > 100 µM; TGI [55]: > 100 µM; TGI [56]: > 100 µM; TGI [57]: > 100 µM; TGI [58]: 60.3 µM; TGI [59]: > 100 µM; TGI [60]: > 100 µM

— PubChem BioAssay (NCI)
